Legend:
[1] = tested on: pseudo-pregnant CD-1 recipient females; assay: Non-surgical embryo transfer to pseudo-pregnant females, pups born; format: in vivo, mouse
Procedure: (§1) Fertilized 2 cell embryos were cultured in KSOM media to blastocyst stage between 3.5 days wt and K. O between 3.8 to 4.1 days. Then they were transferred to 2.5 days post coitum (dpc) pseudo-pregnant CD-1 recipient females using the non-surgical uterine embryo transfer device (65). Pseudo-pregnant CD-1 recipient females were obtained by mating with vasectomized males one day after in vitro fertilization. Only females with a clear plug were chosen as embryo recipients; late morula and early stage blastocysts were chosen to be transferred. Routine genotyping was performed with total DNA from tail biopsy samples from weaning age pups as templates for PCR using genotyping primers for Catsper gene forward [5′-[…]-3′, Seq ID NO: 1] and reverse [S′-[…]-3′; Seq ID NO: 2] and for the reporter gene Lacz forward [5′[…]-3′; Seq ID NO: 3] and reverse [5′-[…]-3′: Seq ID NO: 4] (19).

[2] = tested on: mouse sperm (fertilizing capacity, metaphase II-arrested eggs); assay: In vitro fertilization assay with ionophore pre-treated sperm; format: cell-based; conditions: for fertilizing capacity: A23187 treatment
Procedure: (§2) Sperm from CD-1, C57BL6 (K.O control), CatSper KO 19, SLO3 KO (56), Soluble Adenylyl Cyclase KO (20), and PMC4 KO (35) cauda epididymides were allowed to swim out in 1 mL of standard TYH for 10 minutes. Each swim out tube was split in two halves (500 μl each) and one half was incubated with 20 uM A23187 for 10 minutes. Then, the A23187 was washed by centrifugation as described above (2000 and 1500 RPMS×5 min), the remaining sperm were re-suspended in free A23187 TYH standard medium and capacitated for an addition 1 hour and 20 minutes before adding the sperm to the fertilization drop or for CASA analysis.
Metaphase II-arrested eggs were collected from 6-8 week-old super ovulated CD-1 female mice (Charles River Laboratories). Females were each injected with 5-10 IU equine chorionic gonadotropin and 5-10 IU human chorionic gonadotropin 48 h apart. The cumulus-oocyte complexes (COC's) were placed into a well with 500 μl of media (TYH standard medium) previously equilibrated in an incubator with 5% CO2 at 37° C. Fertilization wells containing 20-30 eggs were inseminated with sperm (final concentration of 2.5×10^6 cells/ml) that had been incubated for 1 h and 20 min (in a medium supporting capacitation with or without calcium ionophore treatment A23187). After 4 h of insemination, eggs were washed and put in a fresh media. The eggs were evaluated 24 h post-insemination. To assess fertilization the three following criteria were considered: 1) the formation of the male and female pronuclei, 2) the emission of the second polar body, and 3) two cells stages.

PKA = assay: Western blot with anti-phosphoPKA substrate antibodies in sperm; format: cell-based, mouse
Procedure: Cauda epididymal mouse sperm were placed in 1 ml Hepes-TYH media as stated in figure legend for each experiment. After 10 min incubation at 37° C., epididymides were removed, and the suspension adjusted with non-cap medium to a final concentration of 1-2×10^7 cells/ml. After dilution 1:4 (total 400 μl), sperm were incubated at 37° C. for 1 hour in conditions that support or not capacitation. For capacitation, media was supplemented with 15 mM NaHCO3 and 4 mg/ml BSA. For A23187 treatment, 500 uL of the sperm suspension were taken from the initial swim out and supplemented with 20 μM A23187 for 10 minutes. Then, A23187 was washed off with 2 rounds of centrifugations 1-) 2000 RPMS and the 2-) 1500 RPMS for 5 min each. Sperm were re-suspended in free A23187 media. To evaluate the behavior of A23187 when PKA is inactivated, H89 was used at a concentration of 50 uM for all incubation periods including those used for washing A23187. Sperm proteins were then extracted for western blotting.
Sperm were centrifuged, and washed in 1 ml of phosphate buffer solution (PBS), re-suspended in Laemmli sample buffer (63), and boiled for 4 min. Before Loading, 5% β-mercaptoethanol was added to the protein extracts and boiled for 3 min. Protein extracts equivalent to 1×10^6 sperm were loaded per line and subjected to SDS-PAGE an electro-transfer to PVDF membranes (Bio-Rad) at 250 mA for 60 min on ice. […]

[3] = tested on: 2 cell embryos from eggs fertilized by treated sperm; assay: Embryo culture of 2 cell embryos in KSOM to blastocyst stage; format: cell-based, mouse; conditions: for percentage of blastocyst in relation to the number of two-cell embryos: CatSper KO sperm, 3.5 days in KSOM
Procedure: as §1

mouse sperm = assay: Sperm motility and hyperactivation by CASA after transient A23187 pre-treatment; format: cell-based
Procedure: as §2
Sperm suspensions (25 μl) were loaded into one pre-warmed chamber slide (depth, 100 μm) (Leja slide, Spectrum Technologies) and placed on a microscope stage at 37° C. Sperm movements were examined using the CEROS computer-assisted semen analysis (CASA) system (Hamilton Thorne Research, Beverly, MA). The default settings include the following: frames acquired: 90; frame rate: 60 Hz; minimum cell size: 4 pixels; static head size: 0.13-2.43; static head intensity: 0.10-1.52; static head elongation: 5-100. Sperm with hyper activated motility, defined as motility with high amplitude thrashing patterns and short distance of travel, were sorted using the criteria established by (64). The data was analyzed using the CASA nova software (64). At least 20 microscopy fields corresponding to a minimum of 200 sperm were analyzed in each experiment.

[4] = H89-treated C57BL6 sperm incubated 10 min in A23187

## CNc1ccc2oc(C[C@H]3O[C@@]4(CC[C@H]3C)O[C@H]([C@H](C)C(=O)c3ccc[nH]3)[C@H](C)C[C@H]4C)nc2c1C(=O)O [A23187]
[1]; C57BL6 sperm after A23187 treatment
  outcome of blastocysts non-surgically transferred to pseudo pregnant females: became live pups
[1]; CatSper KO sperm, A23187 alone, 15 blastocysts transferred
  heterozygous pups born: three
[1]; blastocysts from A23187-treated CatSper KO sperm, two different females
  CatSper (+/-) mouse pups born: five
[2]; C57BL6 sperm, A23187 pre-treatment
  sperm fertilization rate: significant increase
[2]; CatSper1 KO sperm, A23187 transient treatment alone
  infertile phenotype (two-cell embryos developed): rescued the infertile phenotype
[2]; CatSper KO sperm, A23187-treated
  fertilization of metaphase II-arrested eggs in vitro: competent to fertilize
[2]; CatSper KO sperm, starved plus rescue treatment followed by A23187 transient treatment
  fertilization rate: ~90%
[2]; FerTDR/DR sperm, A23187 transient incubation
  sperm fertilization rate: improved
[2]; [4]
  fertilizing capacity of H89-treated sperm: sufficient to induce fertilizing capacity
[2]; PMCA4 KO sperm
  fertilizing capacity: neither their hyperactivated motility nor their fertilizing capacity was rescued
[2]; sAC KO and SLO3 KO sperm
  fertilizing capacity: induced fertilizing capacity in sperm from both KO models
PKA; [4]
  PKA activity in H89-treated sperm after A23187: PKA remains inactive
[3]; A23187 transient treatment alone
  percentage of blastocyst in relation to the number of two-cell embryos: 20%
[3]; combined starved plus rescue with A23187 transient treatment
  percentage of blastocyst in relation to the number of two-cell embryos: ~90%
[3]; eggs fertilized by C57BL6 sperm after A23187 treatment, control about 50%
  fertilized eggs that continued to the blastocyst stage: over 80%
Mouse sperm; C57BL6 sperm, short pulse of A23187 (20 uM, 10 min), compared with CD1 sperm
  percentage of hyperactive sperm: increased the percentage of hyperactive C57BL6 sperm to similar levels as those obtained using CD1 sperm
Mouse sperm; CatSper1 KO sperm, 20 μM A23187 10 min then washed
  hyperactivated motility: a significant number of CatSper KO sperm exhibited hyperactivated motility
Mouse sperm; PMCA4 KO sperm, A23187 addition and removal
  sperm motility: rendered all the sperm motionless and their motility was not recovered after ionophore removal
Mouse sperm; PMCA4 KO sperm, A23187 treatment
  hyperactivated motility: neither their hyperactivated motility nor their fertilizing capacity was rescued
Mouse sperm; sAC KO and SLO3 KO sperm, A23187 for 10 min
  hyperactivation: underwent hyperactivation
Mouse sperm; sAC KO sperm, A23187 for 10 min
  sperm motility: a significant fraction of sAC KO sperm became motile

## O=S(=O)(NCCNCC=Cc1ccc(Br)cc1)c1cccc2cnccc12 [H89, N-[2-[[3-(4-bromophenyl)-2-propen-1-yl]amino]ethyl]5-isoquinolinesulfonamide]
[2]; C57BL6 sperm, H89 50 uM
  ability to fertilize in vitro in the presence of PKA inhibitor: unable to fertilize in vitro
PKA; C57BL6 sperm, H89 50 uM
  PKA substrate phosphorylation: do not show the prototypical increase in PKA substrate phosphorylation
